The data set is described as follows: Total chlorine yield upon dissolution. The class given is physicochemical. The text has this:
The partially halogenated hydantoin is preferably monochloro-5,5-dimethyl hydantoin (MCDMH). MCDMH yields about 43% of its weight in total chlorine upon dissolution.

Regarding “monochloro-5,5-dimethyl hydantoin [MCDMH]”, the “total chlorine yielded upon dissolution” value was “about 43 % of its weight”.

The values above are taken from US20040043914A1, “Sustained release antimicrobial composition including a partially halogenated hydantoin and a colorant” (LONZA INC., priority 2002, published 2004).
